In patent US10695347B2, “Pyrimidine derivative and use thereof” (Hubei Bio-Pharmaceutical Industrial Technological Institute …, priority 2015, dated 2020):
Where two headings read alike, the source gives them in different places.

How the values were obtained:
[1] = biological target: ALK (Homo sapiens (Human), UniProt Q9UM73); test: Inhibition of ALK kinase activity (Caliper mobility shift); format: biochemical
Method: (§1) Inhibition of Compound I Against ALK Kinase Activity
(§2) • I. Preparation of 1× kinase buffer and stop buffer
(§3) 1) 1× Kinase Buffer • 50 mM HEPES. pH 7.5 • 0.0015% Brij-35 • 10 mM MgCl2 • 2 mM DTT • 2) stop buffer • 100 mM HEPES, pH 7.5 • 0.015% Brij-35 • 0.2% Coating Reagent #3 • 50 mM EDTA
(§4) 2. Prepare a Compound Solution to be Tested • Step 2.1 Dilute the compound to 50× of the final desired highest inhibitor concentration in reaction by 100% DMSO. Transfer 100 μl of this compound dilution to a well in a 96-well plate. For example, if desired highest inhibitor concentration is 1 μM, then prepare 50 μM of compound DMSO solution in this step.
(§5) Step 2.2 Further dilute said compound dilution by 3-fold in series, thus obtain 10 concentrations.
(§6) Step 2.3 Add 100 μl of 100% DMSO to two empty wells for no compound control and no enzyme control in the same 96-well plate. Mark the plate as source plate.
(§7) Step 2.4 Prepare an intermediate plate
(§8) Transfer 10 μl of each compound from the source plate to a new 96-well plate as the intermediate plate.
(§9) Add 90 μl of 1× kinase buffer to each well of the intermediate plate. Mix the compounds in the intermediate plate for 10 min on a shaker.
(§10) Transfer 5 μl of each well from the 96-well intermediate plate to a 384-well plate in duplicate. For example, A1 of the 96-well plate is transferred to A1 and A2 of the 384-well plate. A2 of the 96-well plate is transferred to A3 and A4 of the 384-well plate, and so on.
(§11) 4.1 Prepare a 2.5× kinase solution
(§12) Add kinase in 1× kinase base buffer, thus obtain the 2.5× kinase solution.
(§13) 4.2 Prepare a 2.5× peptide solution
(§14) 4.3 In each well of the assay plate obtained in step 3, there was 5 μL of the compound in 10% DMSO.
(§15) 4.4 Transfer the 2.5× enzyme solution to the assay plate.
(§16) 4.5 Incubate at room temperature for 10 min.
(§17) 4.6 Transfer the 2.5× peptide solution to the assay plate.
(§18) 4.7 Kinase reaction and stop
(§19) Incubate at 28° C. for 20 min.
(§20) Add 25 μl of stop buffer to stop reaction.
(§21) Conversion rate of the kinase was read via the Caliper.
(§22) 6.1 Copy conversion data from Caliper program.
(§23) 6.2 Convert conversion values to inhibition values with the following formula: Percent inhibition=(max−conversion)/(max−min)*100
(§24) where “max” stands for DMSO control; and “min” stands for low control.
(§25) 6.3 Fit the data in XLfit excel add-in version 4.3.1 and obtain IC50 values according to the following formula: Y=Bottom+(Top−Bottom)/[…].

[2] = biological target: ALK L1196M (Homo sapiens (Human), UniProt Q9UM73, L1196M); test: Inhibition of ALK L1196M kinase activity (Caliper mobility shift); format: biochemical
ALK L1196M, sequence (Q9UM73 19-1620 L1196M): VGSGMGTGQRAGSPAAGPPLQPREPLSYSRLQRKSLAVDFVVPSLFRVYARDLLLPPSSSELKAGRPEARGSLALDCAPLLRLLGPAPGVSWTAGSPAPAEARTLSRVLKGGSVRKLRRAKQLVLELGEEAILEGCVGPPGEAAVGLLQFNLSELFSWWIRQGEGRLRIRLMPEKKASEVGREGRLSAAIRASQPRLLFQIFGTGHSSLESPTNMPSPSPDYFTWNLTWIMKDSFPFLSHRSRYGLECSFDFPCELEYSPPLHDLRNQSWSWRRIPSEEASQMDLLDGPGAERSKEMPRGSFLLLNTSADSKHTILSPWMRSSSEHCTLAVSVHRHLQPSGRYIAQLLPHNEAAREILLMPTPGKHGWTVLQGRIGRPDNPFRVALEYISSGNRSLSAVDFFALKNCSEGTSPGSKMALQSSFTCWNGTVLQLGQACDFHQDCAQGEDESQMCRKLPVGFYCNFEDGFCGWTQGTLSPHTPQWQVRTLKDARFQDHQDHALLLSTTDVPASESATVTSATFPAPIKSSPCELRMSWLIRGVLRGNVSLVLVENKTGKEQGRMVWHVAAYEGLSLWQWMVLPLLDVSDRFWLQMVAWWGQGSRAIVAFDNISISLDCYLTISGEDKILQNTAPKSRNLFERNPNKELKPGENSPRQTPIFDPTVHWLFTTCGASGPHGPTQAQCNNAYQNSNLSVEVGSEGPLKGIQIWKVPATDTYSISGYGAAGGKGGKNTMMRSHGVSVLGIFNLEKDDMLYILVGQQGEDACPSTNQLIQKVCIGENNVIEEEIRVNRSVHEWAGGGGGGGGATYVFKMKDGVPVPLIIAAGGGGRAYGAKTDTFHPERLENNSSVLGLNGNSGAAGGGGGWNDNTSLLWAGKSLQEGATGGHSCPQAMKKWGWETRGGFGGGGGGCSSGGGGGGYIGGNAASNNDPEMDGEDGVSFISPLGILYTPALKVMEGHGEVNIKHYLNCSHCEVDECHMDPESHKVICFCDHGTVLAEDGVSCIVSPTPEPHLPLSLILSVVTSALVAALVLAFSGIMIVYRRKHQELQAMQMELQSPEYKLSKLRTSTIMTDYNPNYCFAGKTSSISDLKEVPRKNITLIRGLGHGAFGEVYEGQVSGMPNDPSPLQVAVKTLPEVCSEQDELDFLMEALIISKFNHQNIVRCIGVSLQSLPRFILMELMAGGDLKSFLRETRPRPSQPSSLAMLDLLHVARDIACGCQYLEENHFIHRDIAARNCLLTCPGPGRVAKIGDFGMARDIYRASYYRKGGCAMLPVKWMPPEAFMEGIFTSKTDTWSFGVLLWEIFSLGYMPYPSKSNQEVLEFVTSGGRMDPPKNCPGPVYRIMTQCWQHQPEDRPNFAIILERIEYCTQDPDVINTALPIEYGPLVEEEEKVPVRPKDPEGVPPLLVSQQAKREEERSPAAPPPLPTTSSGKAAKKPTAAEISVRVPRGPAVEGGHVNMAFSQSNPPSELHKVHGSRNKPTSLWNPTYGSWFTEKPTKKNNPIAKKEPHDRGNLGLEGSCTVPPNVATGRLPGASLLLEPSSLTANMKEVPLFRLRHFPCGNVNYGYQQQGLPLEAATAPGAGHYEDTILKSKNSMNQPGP
Method: as §1, §2, §3, §4, §5, §6, §7, §8, §9, §10, §11, §12, §13, §14, §15, §16, §17, §18, §19, §20, §21, §22, §23, §24, §25

[3] = system: Karpas299 cells; test: Suppression of Karpas299 cell proliferation (CellTiter-Glo); format: cell-based; conditions: 3 days incubation, read-out: Inhibition activity on Karpas299 cells IC50
Method: (§26) As the amount of ATP can indicate the number of living cells directly, the living cells in culture are able to be quantified by determining the ATP level. In our experiment, we use a living-cell testing kit to quantify the living cells, which utilizes UltraGlow luciferase to generate a stable glow signal in the presence of ATP which is produced by metabolism of living cells, such as respiration. Specifically, a reagent CellTiter-Glo™ was added into cell culture media, and then the luminescent intensity was determined to measure proliferation of cells, as the luminescent intensity is in direct proportion to the ATP level which correlates positively to the number of living cells. The test plate was tested with the Envision (PE).
Cell media: RPMI-1640 medium, fetal calf serum (FCS), antibiotics (Penicillin-Streptomycin)
Assay reagent: Cell Viability Assay Kit CellTiter-Glo
(§27) Others: a 96-well plate, a 384-well plate, DMSO
(§28) Step 3.1 Culturing test cells
Karpas 299 cells were plated into a black 384-well plate, with 2500 cells in 45 μl cell suspension per well. The plate was placed in a carbon dioxide incubator overnight.
(§29) Step 3.2 Preparation of the compounds to be tested
Each compound to be tested was dissolved in DMSO at 10 mM as the stock solution, which was left in a nitrogen-gas tank for storage.
After dilution of 10 μL stock solution (10 mM) into 2.5 mM as a starting working solution, 10 concentrations of the working solutions from 5 μM to 0.25 nM were obtained in duplicate by further dilution in 3-fold series with ECHO.
Step 3.3 Mixing the compound with the test cells
To each well of a new 96-well plate were added 49 μl medium and 1 μl of the compounds to be tested at individual working concentrations (10 concentrations in total). After oscillation,
5 μl of mixture in each well of the 96-well plate was transferred into corresponding wells in the 384-well plate in the step 3.1. The 384-well plate was incubated in the carbon dioxide incubator for 3 days.
To each well of the 384-well plate was added […] reagent Promega CellTiter-Glo. and incubated at room temperature for 10 minutes to stabilize the luminescence signal. The results were read with the PerkinElmer Envision Multi-mode Plate Reader.

[4] = system: Ba/F3 EML4-ALK cells; test: Suppression of Ba/F3 EML4-ALK cell proliferation (CellTiter-Glo); format: cell-based; conditions: 3 days incubation
Source text: Cell media: RPMI-1640 medium, fetal calf serum (FCS), antibiotics (Penicillin-Streptomycin), IL-3, puromycin
Cell line: Ba/F3 EML4-ALK
Assay reagent: Cell Viability Assay Kit Celliter-Glo
as §27
as §26, with “in medium” for “in culture”, “a cell viability assay” for “a living-cell testing”, “was assayed by” for “was tested with”
as §28
Ba/F3 EML4-ALK cells were planted into a 384-well plate, with almost 300 cells per well. The plate was placed in a carbon dioxide incubator overnight.
as §29
10 concentrations of the working solutions were obtained in duplicate by dilution in 3-fold series with BRAVO.
Step 3.3 Mixing the compound to be tested with the test cells
The compounds to be tested at individual working concentrations were transferred into corresponding wells in the 384-well plate in the step 3.1, with 5 μM as the initial working concentration, and then the 384-well plate was incubated in the carbon dioxide incubator for 3 days.
To each well of the 384-well plate was added the reagent Promega CellTiter-Glo, and incubated at room temperature for 10 minutes to stabilize the luminescence signal. The results were read by the PerkinElmer Envision Multi-mode Plate Reader.

ALK, sequence (Q9UM73 19-1620): as the sequence (Q9UM73 19-1620 L1196M) above, with M1178L counted along it

Molecule	IC50 [1] [nM]	IC50 [2] [nM]	IC50 [3] [nM]	IC50 [4] [nM]	IC50 ([3]; Homo sapiens, KARPAS-299, 72 h) [nM]	IC50 ([4]; Ba/F3 EML4-ALK, 72 h) [nM]
5-chloro-N^2-(2-isopropoxy-5-methyl-4-(1,2,3,6-tetrahydropiperidin-4-yl) phenyl)-N^4-(2-isopropylsulfonyl) pyridin-3-yl) pyrimidine-2,4-diamine [Compound I-90]	1 to 10	1 to 10	< 50	< 20	–	–
COc1cc(N2CCOCC2)ccc1Nc1ncc(Cl)c(Nc2ccsc2S(=O)(=O)C(C)C)n1 [Compound I-1]	–	–	–	–	< 50	< 20
COc1cc(N2CCN(C)CC2)ccc1Nc1ncc(Cl)c(Nc2ccsc2S(=O)(=O)C(C)C)n1 [Compound I-2]	–	–	–	–	< 50	< 20
COc1cc(N2CCC(N(C)C)CC2)ccc1Nc1ncc(Cl)c(Nc2ccsc2S(=O)(=O)C(C)C)n1 [Compound I-3]	–	–	–	–	< 50	< 20
COc1cc(N2CCN(C)CC2)ccc1Nc1ncc(Cl)c(Nc2cccnc2S(=O)(=O)C(C)C)n1 [Compound I-5]	1 to 10	1 to 10	–	–	< 50	< 20
COc1cc(N2CCC(N(C)C)CC2)ccc1Nc1ncc(Cl)c(Nc2cccnc2S(=O)(=O)C(C)C)n1 [Compound I-6]	1 to 10	1 to 10	–	–	< 50	< 20
COc1cc(N2CCC(N3CCOCC3)CC2)ccc1Nc1ncc(Cl)c(Nc2cccnc2S(=O)(=O)C(C)C)n1 [Compound I-7]	1 to 10	1 to 10	–	–	< 50	< 20
COc1cc(N2CCC(N3CCOCC3)CC2)ccc1Nc1ncc(Cl)c(Nc2ccsc2S(=O)(=O)C(C)C)n1 [Compound I-8]	–	–	–	–	< 50	< 20
COc1cc(N2CCC(O)CC2)ccc1Nc1ncc(Cl)c(Nc2cccnc2S(=O)(=O)C(C)C)n1 [Compound I-9]	1 to 10	1 to 10	–	–	< 50	20 to 100
COc1cc(N2CCC(N3CCN(C)CC3)CC2)ccc1Nc1ncc(Cl)c(Nc2cccnc2S(=O)(=O)C(C)C)n1 [Compound I-10]	1 to 10	1 to 10	–	–	< 50	< 20
COc1cc(N2CCC(N3CCN(C)CC3)CC2)ccc1Nc1ncc(Cl)c(Nc2ccsc2S(=O)(=O)C(C)C)n1 [Compound I-11]	1 to 10	1 to 10	–	–	< 50	< 20
COc1cc(N2CCC(N3CC(C)OC(C)C3)CC2)ccc1Nc1ncc(Cl)c(Nc2cccnc2S(=O)(=O)C(C)C)n1 (centres unmarked) [Compound I-12]	1 to 10	1 to 10	–	–	50 to 100	< 20
COc1cc(N2CCN(C)CC2)ccc1Nc1ncc(Cl)c(Nc2ccccc2S(=O)(=O)C(C)C)n1 [Compound I-13]	–	–	–	–	< 50	< 20
COc1cc(N2CCC(N(C)C)CC2)ccc1Nc1ncc(Cl)c(Nc2ccccc2S(=O)(=O)C(C)C)n1 [Compound I-14]	–	–	–	–	< 50	< 20
COc1cc(N2CCC(N3CCC(N(C)C)CC3)CC2)ccc1Nc1ncc(Cl)c(Nc2ccccc2S(=O)(=O)C(C)C)n1 [Compound I-15]	–	–	–	–	50 to 100	< 20
COc1cc(N2CCC(O)CC2)ccc1Nc1ncc(Cl)c(Nc2ccsc2S(=O)(=O)C(C)C)n1 [Compound I-16]	–	–	–	–	< 50	< 20
COc1cc(N2CCC(N3CC(C)OC(C)C3)CC2)ccc1Nc1ncc(Cl)c(Nc2ccccc2S(=O)(=O)C(C)C)n1 (centres unmarked) [Compound I-17]	1 to 10	1 to 10	–	–	< 50	< 20
COc1cc(N2CCC(N3CCC(N(C)C)CC3)CC2)ccc1Nc1ncc(Cl)c(Nc2ccsc2S(=O)(=O)C(C)C)n1 [Compound I-18]	1 to 10	1 to 10	–	–	< 50	< 20
COc1cc(N2CCN(C(C)C)CC2)ccc1Nc1ncc(Cl)c(Nc2cccnc2S(=O)(=O)C(C)C)n1 [Compound I-23]	1 to 10	1 to 10	–	–	< 50	< 20
COc1cc(C2=CCN(C(C)C)CC2)c(C)cc1Nc1ncc(Cl)c(Nc2cccnc2S(=O)(=O)C(C)C)n1 [Compound I-80, 5-chloro-N^2-(4-(1-isopropyl-1,2,3,6-tetrahydropyridin-4-yl)-2-methoxy-5-methylphenyl)-N^4-(2-(isopropylsulfonyl)pyridin-3-yl) pyrimidine-2,4-diamine]	1 to 10	1 to 10	–	–	< 50	20 to 100
COc1cc(C2=CCNCC2)c(C)cc1Nc1ncc(Cl)c(Nc2cccnc2S(=O)(=O)C(C)C)n1 [Compound I-89]	1 to 10	–	–	–	50 to 100	< 20
CC(C)S(=O)(=O)c1ccccc1Nc1nc(Nc2ccc(N3CCC(N(C)C)CC3)cc2OC(F)F)ncc1Cl [Compound I-95]	–	–	–	–	< 50	20 to 100
COc1cc(CN2CCC(N(C)C)CC2)ccc1Nc1ncc(OC(F)F)c(Nc2ccccc2S(=O)(=O)C(C)C)n1 [Compound I-103]	1 to 10	–	–	–	50 to 100	< 20
COc1cc(CN2CCC(N(C)C)CC2)ccc1Nc1ncc(Cl)c(Nc2cccnc2S(=O)(=O)C(C)C)n1 [Compound I-107]	–	1 to 10	–	–	50 to 100	20 to 100
CC(C)S(=O)(=O)c1ccccc1Nc1nc(Nc2ccc(N3CCC(N(C)C)CC3)cc2OC(F)F)ncc1OC(F)F [Compound I-114]	–	–	–	–	< 50	< 20
